Experimental data: ChEMBL document CHEMBL1949614, “Advent of Imidazo[1,2-a]pyridine-3-carboxamides with Potent Multi- and Extended Drug Resistant Antituberculosis Activity” (ACS Med Chem Lett, 2011)
≈ marks a conversion by molar mass, not a printed value.

Assays:
Assay in all cases: microbe, parasite or virus in culture
[1] = system: Mycobacterium tuberculosis
[2] = system: Mycobacterium tuberculosis; details: variant bovis BCG
[3] = system: Mycobacterium tuberculosis; remark: listed apart in the source
[4] = system: Mycobacterium tuberculosis; remark: listed apart in the source
[5] = system: Mycobacterium tuberculosis; remark: listed apart in the source

SMILES	MIC90 [1]	MIC90 [2]	MIC90 [3]	MIC90 [4]	MIC90 [5]
Cc1ccn2c(C(=O)NCc3ccccc3)c(C)nc2c1	0.28 µM (≈ 0.0782 µg/mL)	0.33 µM (≈ 0.0922 µg/mL)	1.02 µM (≈ 0.285 µg/mL)	1.07 µM (≈ 0.299 µg/mL)	–
CO[C@H]1/C=C/O[C@@]2(C)Oc3c(C)c(O)c4c(O)c(c(/C=N/N5CCN(C)CC5)c(O)c4c3C2=O)NC(=O)/C(C)=C\C=C\[C@H](C)[C@H](O)[C@@H](C)[C@@H](O)[C@@H](C)[C@H](OC(C)=O)[C@@H]1C [RIFAMPIN]	> 1 µM	< 0.78 µM	–	–	–
COc1cccc(CNC(=O)c2c(C)nc3ncc(C)cn23)c1	1.49 µM (≈ 0.462 µg/mL)	2.78 µM (≈ 0.863 µg/mL)	5.84 µM (≈ 1.81 µg/mL)	1.02 µM (≈ 0.317 µg/mL)	5.84 µM (≈ 1.81 µg/mL)
NNC(=O)c1ccncc1 [ISONIAZID]	–	–	–	–	> 8 µM
